Experimental data from patent publication US9937182B2, “Therapeutic strategies for the treatment of preeclampsia” (UNIVERSITY OF IOWA RESEARCH FOUNDATION, priority 2013, dated 2018).
“And” between values parts separate entries of the source, which are not always exact repeats. Equal entries are not always repeated.

Test system: wildtype female mice (C57Bl/6 background)
Experiment: Vasopressin infusion (24 ng/hr) throughout pregnancy, fetal and placental masses and resorption at GD18
Format: in vivo
Conditions: for Raw fetal mass (Fetus): individual fetuses; for Raw placental mass (Placenta): individual placentas
Method: Methods: Nine adult wildtype female mice were obtained from in-house breeding colonies that are based on the C57Bl/6 background strain. Three days before breeding, females were implanted with subcutaneous osmotic minipumps (Alzet) to continuously deliver arginine vasopressin (AVP, Sigma-Aldrich) at 24 ng/hr. Females were mated for two consecutive nights with wildtype male C57BL/6J males purchased from Jackson Laboratories. GD1 was defined based upon the presence of a vaginal sperm plug. On gestational day 18, female mice were sacrificed by CO2 asphyxiation, and fetuses and fetoplacental units were isolated by blunt dissection.

[1] = all six pregnancies, vasopressin 24 ng/hr, GD18
[2] = average of dam 200245-2 (HD4), vasopressin 24 ng/hr, GD18
[3] = average of dam 200245-4 (HD5), vasopressin 24 ng/hr, GD18
[4] = average of dam 200301-2 (HD2), vasopressin 24 ng/hr, GD18
[5] = average of dam 200301-4 (HD3), vasopressin 24 ng/hr, GD18
[6] = average of dam 200357-1 (HD6), vasopressin 24 ng/hr, GD18
[7] = average of dam 200372-3 (HD9), vasopressin 24 ng/hr, GD18
[8] = dam 200245-2 (HD4), vasopressin 24 ng/hr, GD18
[9] = dam 200245-4 (HD5), vasopressin 24 ng/hr, GD18
[10] = dam 200301-2 (HD2), vasopressin 24 ng/hr, GD18
[11] = dam 200301-4 (HD3), vasopressin 24 ng/hr, GD18
[12] = dam 200357-1 (HD6), vasopressin 24 ng/hr, GD18
[13] = dam 200372-3 (HD9), vasopressin 24 ng/hr, GD18

Compound: NC(=O)CC[C@@H]1NC(=O)[C@H](Cc2ccccc2)NC(=O)[C@H](Cc2ccc(O)cc2)NC(=O)[C@@H](N)CSSC[C@@H](C(=O)N2CCC[C@H]2C(=O)N[C@@H](CCCN=C(N)N)C(=O)NCC(N)=O)NC(=O)[C@H](CC(N)=O)NC1=O [Arginine vasopressin]
- Avg mass, Fetus [1]: 0.4929 g
- Avg mass, Placenta [1]: 0.0628 g
- Resorb, total count [1]: 10
- resorbed fetoplacental units [1]: 17%
- Avg mass, Fetus [2]: 0.7741 g
- Avg mass, Placenta [2]: 0.0536 g
- Avg mass, Fetus [3]: 0.0371 g
- Avg mass, Placenta [3]: 0.0388 g
- Avg mass, Fetus [4]: 0.3741 g
- Avg mass, Placenta [4]: 0.0760 g
- Avg mass, Fetus [5]: 0.3054 g
- Avg mass, Placenta [5]: 0.0672 g
- Avg mass, Fetus [6]: 0.4660 g
- Avg mass, Placenta [6]: 0.0545 g
- Avg mass, Fetus [7]: 1.0077 g
- Avg mass, Placenta [7]: 0.0761 g
- Raw fetal mass (Fetus) [8]: 0.7964 g and 0.5962 g and 0.8258 g and 0.8183 g and 0.8336 g
- Raw fetal mass (Fetus) [9]: 0.0154 g and 0.0699 g and 0.0261 g
- Raw fetal mass (Fetus) [10]: 0.3756 g and 0.3352 g and 0.3805 g and 0.3954 g and 0.3094 g and 0.3777 g and 0.4078 g and 0.3880 g and 0.3971 g
- Raw fetal mass (Fetus) [11]: 0.2866 g and 0.2599 g and 0.3328 g and 0.3609 g and 0.3085 g and 0.3087 g and 0.2955 g and 0.3356 g and 0.3129 g and 0.3034 g and 0.3086 g and 0.2516 g
- Raw fetal mass (Fetus) [12]: 0.4865 g and 0.4962 g (2×) and 0.4780 g and 0.4092 g and 0.4543 g and 0.5241 g and 0.4999 g and 0.4399 g and 0.4501 g and 0.5057 g and 0.3521 g
- Raw fetal mass (Fetus) [13]: 0.9287 g and 1.0395 g and 1.1359 g and 1.0723 g and 1.0064 g and 0.9679 g and 0.9034 g
- Raw placental mass (Placenta) [8]: 0.0679 g and 0.0629 g and 0.0860 g and 0.0898 g and 0.0770 g and 0.0070 g and 0.0157 g and 0.0324 g and 0.0433 g
- Raw placental mass (Placenta) [9]: 0.0494 g and 0.0410 g and 0.0261 g and <0.01 g (5×)
- Raw placental mass (Placenta) [10]: 0.0687 g and 0.0810 g and 0.0828 g and 0.0796 g and 0.0638 g and 0.0840 g and 0.0936 g and 0.0477 g and 0.0827 g
- Raw placental mass (Placenta) [11]: 0.0315 g and 0.0762 g and 0.0747 g and 0.0876 g and 0.0710 g and 0.0789 g and 0.0620 g and 0.0687 g and 0.0669 g and 0.0714 g and 0.0640 g and 0.0529 g
- Raw placental mass (Placenta) [12]: 0.0599 g and 0.0709 g and 0.0663 g and 0.0509 g and 0.0480 g and 0.0648 g and 0.0767 g and 0.0678 g and 0.0426 g and 0.0471 g and 0.0569 g and 0.0499 g and 0.0067 g
- Raw placental mass (Placenta) [13]: 0.0725 g and 0.0866 g and 0.0753 g and 0.0810 g and 0.0706 g and 0.0702 g and 0.0766 g
- fetus mass across all six pregnancies (n=48, vasopressin 24 ng/hr, GD18, P<0.0001 against 0.90 gram historical control): 0.4929±0.0397 gram/fetus
- female mice that became pregnant (of nine) (vasopressin 24 ng/hr, two nights mating): Six
